Test results: publication PMC10869683, “Structure of recombinant formate dehydrogenase from Methylobacterium extorquens (MeFDH1)” (Scientific Reports, 2024)

Columns and labels:
[1] = biological target: T1, recombinant MeFDH1 (alpha/beta heterodimer), MeFDH1-α active site (Methylorubrum extorquens, UniProt C5ATT7); conditions: 30 mM potassium formate, 0.5 mM NAD+, 50 mM MOPS, 30 °C; pH not given
T1 construct: gene fdh1A
T1 sequence (C5ATT7 1-989): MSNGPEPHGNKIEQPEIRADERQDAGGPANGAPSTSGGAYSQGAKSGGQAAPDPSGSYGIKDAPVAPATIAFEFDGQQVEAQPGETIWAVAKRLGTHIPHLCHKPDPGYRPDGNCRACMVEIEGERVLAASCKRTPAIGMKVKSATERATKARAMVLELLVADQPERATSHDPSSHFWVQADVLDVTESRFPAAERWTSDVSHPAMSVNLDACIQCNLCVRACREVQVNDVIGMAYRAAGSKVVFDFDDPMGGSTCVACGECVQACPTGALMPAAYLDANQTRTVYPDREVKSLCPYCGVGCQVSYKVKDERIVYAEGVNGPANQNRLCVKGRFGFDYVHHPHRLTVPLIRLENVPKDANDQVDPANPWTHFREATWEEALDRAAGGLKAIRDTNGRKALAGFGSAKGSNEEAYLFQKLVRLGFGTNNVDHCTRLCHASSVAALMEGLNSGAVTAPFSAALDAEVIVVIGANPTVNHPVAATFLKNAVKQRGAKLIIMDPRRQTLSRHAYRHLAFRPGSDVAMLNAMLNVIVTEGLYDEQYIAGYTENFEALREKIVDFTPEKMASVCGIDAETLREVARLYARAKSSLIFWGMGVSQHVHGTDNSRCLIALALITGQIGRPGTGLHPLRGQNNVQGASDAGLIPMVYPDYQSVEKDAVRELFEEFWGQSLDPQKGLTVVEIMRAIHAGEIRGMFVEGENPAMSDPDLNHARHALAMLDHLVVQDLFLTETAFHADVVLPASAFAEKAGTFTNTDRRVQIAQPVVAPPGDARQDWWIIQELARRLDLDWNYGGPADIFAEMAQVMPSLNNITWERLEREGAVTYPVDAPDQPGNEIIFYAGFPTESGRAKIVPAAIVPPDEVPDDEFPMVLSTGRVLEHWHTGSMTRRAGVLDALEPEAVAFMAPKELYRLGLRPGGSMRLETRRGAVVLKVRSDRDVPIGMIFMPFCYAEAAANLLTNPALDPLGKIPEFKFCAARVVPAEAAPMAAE
T1 sequence (C5ATT6 1-572 partner): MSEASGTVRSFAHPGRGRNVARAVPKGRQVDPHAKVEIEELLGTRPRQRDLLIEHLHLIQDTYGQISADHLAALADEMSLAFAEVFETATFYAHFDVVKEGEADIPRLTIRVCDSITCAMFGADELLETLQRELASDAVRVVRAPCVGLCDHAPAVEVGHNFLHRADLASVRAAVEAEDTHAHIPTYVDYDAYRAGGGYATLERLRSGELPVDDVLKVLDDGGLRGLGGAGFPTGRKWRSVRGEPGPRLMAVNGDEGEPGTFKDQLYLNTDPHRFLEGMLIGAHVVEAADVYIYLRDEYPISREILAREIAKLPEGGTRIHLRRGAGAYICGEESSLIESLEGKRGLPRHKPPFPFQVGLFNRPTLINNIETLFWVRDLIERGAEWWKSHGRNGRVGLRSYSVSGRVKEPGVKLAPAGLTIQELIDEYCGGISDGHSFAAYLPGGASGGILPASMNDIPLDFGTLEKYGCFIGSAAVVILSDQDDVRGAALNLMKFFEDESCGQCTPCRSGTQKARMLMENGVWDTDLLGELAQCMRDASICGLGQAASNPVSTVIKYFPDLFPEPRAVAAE

[2] = biological target: T2, recombinant MeFDH1 (alpha/beta heterodimer), MeFDH1-β FMN / diaphorase site (Methylorubrum extorquens, UniProt C5ATT6); assay: formate oxidation coupled to NAD+ reduction, A340; assay type: biochemical; conditions: 30 mM potassium formate, 0.5 mM NAD+, 50 mM MOPS, 30 °C; pH not given; site in beta inferred by homology
T2 construct: gene fdh1B; same complex as P1, site in beta subunit; C-terminal His6 on alpha; expressed in M. extorquens AM1 fdh1 knockout; heterodimer ~169 kDa; with Formate dehydrogenase subunit alpha (tungsten-containing formate dehydrogenase alpha subunit)

[3] = biological target: T2, recombinant MeFDH1 (alpha/beta heterodimer), MeFDH1-β FMN / diaphorase site; assay: cryo-EM structure, […] Å; assay type: binding; conditions: FMN site at the center of the beta subunit

O=CO [formate]
formate oxidation coupled to NAD+ reduction, A340 [1]: measuring its formate oxidation reaction coupled with NAD^+ reduction

NC(=O)c1ccc[n+]([C@@H]2O[C@H](COP(=O)(O)OP(=O)(O)OC[C@H]3O[C@@H](n4cnc5c(N)ncnc54)[C@H](O)[C@@H]3O)[C@@H](O)[C@H]2O)c1 [NAD^+]
formate oxidation coupled to NAD+ reduction, A340 [2]: measuring its formate oxidation reaction coupled with NAD^+ reduction

Cc1cc2nc3c(=O)[nH]c(=O)nc-3n(C[C@H](O)[C@H](O)[C@H](O)COP(=O)(O)O)c2cc1C [FMN]
cryo-EM structure, 2.8 Å [3]: FMN is coordinated at the center of the MeFDH1-β subunit
